What was measured:
HCT116-p53+/+ cells = experiment: MTS cell viability assay, HCT116; format: cell-based; conditions: single dose, 10 μg/mL, positive control
SW480 cells (mutant p53) = experiment: Tumor-killing activity by Trypan blue cell count, SW480; format: cell-based; conditions: added daily, 10 μg/mL

COc1ccc(C2=N[C@@H](c3ccc(Cl)cc3)[C@@H](c3ccc(Cl)cc3)N2C(=O)N2CCNC(=O)C2)c(OC(C)C)c1 [Nutlin-3] was tested, and the “HCT116 cell viability (MTS)” value (HCT116-p53+/+ cells) was “a reduction in HCT116 cell viability” and the “effectiveness against SW480” value (SW480 cells (mutant p53)) was “ineffective”.

Source: paper PMC3810402 (Journal of the American Chemical Society, 2008)
